Laboratory results from paper PMC10054240, “New Inhibitors of Respiratory Syncytial Virus (RSV) Replication Based on Monoterpene-Substituted Arylcoumarins” (Molecules, 2023).
Values joined by “and” are separate entries in the source; they are usually repeats but may differ in a detail not shown here. Equal values may be shown once. Read-outs that look alike come from different tables or passages of the source.

Assays:
[1] = Cytotoxicity on non-infected HEp-2 cells, MTT assay; assay type: cell-based; conditions: human, non-infected HEp-2 cells, CC50 (50% cytotoxic concentration), MTT, 24 h
RSV A strain A2 = test: Antiviral activity against RSV A strain A2 in HEp-2 cells (ELISA virus titer); assay type: cell-based, respiratory syncytial virus; conditions: for IC50: HEp-2, RSV A, read-out: pIC50 (-lg[IC50]) (converted); for IC50 / pIC50 (-lg[IC50]): from Table 1 values; for pIC50 (-lg[IC50]): RSV A
HEp-2 cells = test: Cytotoxicity on non-infected HEp-2 cells, MTT assay; assay type: cell-based; conditions: read-out: CC50 (50% cytotoxic concentration), MTT, 24 h
[2] = human respiratory syncytial virus
[3] = human respiratory syncytial virus, HEp-2, read-out: EC50 (50% effective concentration)
[4] = read-out: EC50 (50% effective concentration)
[5] = human respiratory syncytial virus, read-out: EC50 (50% effective concentration), RSV A strain A2, HEp-2 cells

Row | Structure (SMILES) | CC50 at 24 h [1] | antiviral activity against RSV A (in words) (RSV A strain A2) | IC50 (RSV A strain A2; [2]) | EC50 (RSV A strain A2; [3]) | CC50 (HEp-2 cells) | SI (selective index) (RSV A strain A2) | pIC50 (-lg[IC50]) (RSV A strain A2) | EC50 (RSV A strain A2; [4]) | EC50 (RSV A strain A2; human respiratory syncytial virus, HEp-2, read-out: EC50 (50% effective concentration), RSV A strain A2, HEp-2 cells) | EC50 (RSV A strain A2; [5])
1 | CC(C)=CCC/C(C)=C/COc1ccc2c(-c3ccccc3)cc(=O)oc2c1 [Compound 14a] | 805 ± 97.6 µM | moderate antiviral activity | 67.6 µM | 67.3 ± 9.1 µM |  |  |  |  |  | 
2 | CC1(C)C2CC=C(COc3ccc4c(-c5ccccc5)cc(=O)oc4c3)C1C2 (stereo not drawn) [Compound 14c] |  | not active |  |  | 813 ± 32.4 µM | 3.5 | 3.63 | 234 ± 27.1 µM |  | 
3 | CC1(C)C2CC=C(CCOc3ccc4c(-c5ccccc5)cc(=O)oc4c3)C1C2 (stereo not drawn) [Compound 14d] | 657 ± 20.4 µM |  | 83.2 µM | 82.5 ± 10.3 µM |  | 7.9 |  |  |  | 
4 | CC1(C)[C@H]2CC=C(CCCCOc3ccc4c(-c5ccccc5)cc(=O)oc4c3)[C@@H]1C2 [Compound 14f, 7-(4-((1R,5S)-6,6-Dimethylbicyclo[3.1.1]hept-2-en-2-yl)butoxy)-4-phenyl-2H-chromen-2-one] | 1270 ± 180 µM |  | 112 µM | 111 ± 10.5 µM |  | 11.4 |  |  |  | 
5 | CC(C)=CCC/C(C)=C/COc1ccc2c(-c3ccc(Br)cc3)cc(=O)oc2c1 [Compound 15a] | 8.8 ± 0.5 µM |  | 8.91 µM | 8.8 ± 0.7 µM |  | 1 |  |  |  | 
6 | CC1(C)C2CC=C(COc3ccc4c(-c5ccc(Br)cc5)cc(=O)oc4c3)C1C2 (stereo not drawn) [Compound 15b] | 46.6 ± 8.6 µM |  |  |  |  | 3 | 4.82 | 15.1 ± 1.1 µM |  | 
7 | CC1(C)C2CC=C(COc3ccc4c(-c5ccc(Br)cc5)cc(=O)oc4c3)C1C2 (stereo not drawn) [Compound 15c] |  |  |  |  | 90.8 ± 11 µM | 1.9 | 4.31 and 4.30 | 48.7 ± 7.6 µM |  | 
8 | CC1(C)C2CC=C(CCOc3ccc4c(-c5ccc(Br)cc5)cc(=O)oc4c3)C1C2 (stereo not drawn) [Compound 15d] | 17.2 ± 2.6 µM |  | > 20 µM | > 20 µM |  | <0.8 | 4.70 |  |  | 
9 | CC1(C)[C@H]2CC=C(CCCOc3ccc4c(-c5ccc(Br)cc5)cc(=O)oc4c3)[C@@H]1C2 [Compound 15e, 4-(4-Bromophenyl)-7-(3-((1R,5S)-6,6-dimethylbicyclo[3.1.1]hept-2-en-2-yl)propoxy)-2H-chromen-2-one] | 12.5 ± 1.4 µM |  | > 12.6 µM | > 12.5 µM |  | <1 | 4.90 |  |  | 
10 | CC1(C)[C@H]2CC=C(CCCCOc3ccc4c(-c5ccc(Br)cc5)cc(=O)oc4c3)[C@@H]1C2 [Compound 15f, 4-(4-Bromophenyl)-7-(4-((1R,5S)-6,6-dimethylbicyclo[3.1.1]hept-2-en-2-yl)butoxy)-2H-chromen-2-one] | 91.3 ± 9.2 µM |  | 9.55 µM | 9.5 ± 0.8 µM |  |  |  |  |  | 
11 | O=c1cc(-c2ccc(Br)cc2)c2ccc(OCc3ccccc3)cc2o1 [Compound 15g] | 265 ± 29.5 µM |  | 83.2 µM | 84 ± 3 µM |  | 3.2 |  |  |  | 
12 | CC(C)=CCC/C(C)=C/COc1ccc2c(-c3ccc(F)cc3)cc(=O)oc2c1 [Compound 16a] | 273 ± 16 µM |  | 47.9 µM | 47.4 ± 8 µM |  | 5.8 |  |  |  | 
13 | CC1(C)C2CC=C(COc3ccc4c(-c5ccc(F)cc5)cc(=O)oc4c3)C1C2 (stereo not drawn) [Compound 16b] |  |  |  |  | 297 ± 8.5 µM | 2.9 | 3.99 | 103 ± 7.1 µM |  | 
14 | CC1(C)C2CC=C(COc3ccc4c(-c5ccc(F)cc5)cc(=O)oc4c3)C1C2 (stereo not drawn) [Compound 16c] |  |  |  |  | 20.5 ± 4.9 µM | 1.4 | 4.84 | 14.3 ± 2.9 µM |  | 
15 | CC1(C)[C@H]2CC=C(CCCOc3ccc4c(-c5ccc(F)cc5)cc(=O)oc4c3)[C@@H]1C2 [Compound 16e, 7-(3-((1R,5S)-6,6-Dimethylbicyclo[3.1.1]hept-2-en-2-yl)propoxy)-4-(4-fluorophenyl)-2H-chromen-2-one] | 996 ± 8.2 µM |  | 110 µM | 110 ± 10.4 µM |  | 9 |  |  |  | 
16 | CC1(C)[C@H]2CC=C(CCCCOc3ccc4c(-c5ccc(F)cc5)cc(=O)oc4c3)[C@@H]1C2 [Compound 16f, 7-(4-((1R,5S)-6,6-Dimethylbicyclo[3.1.1]hept-2-en-2-yl)butoxy)-4-(4-fluorophenyl)-2H-chromen-2-one] | 109 ± 10.5 µM |  | 9.33 µM | 9 µM |  | 11.8 |  | 9.2 ± 1.1 µM |  | 
17 | O=c1cc(-c2ccc(F)cc2)c2ccc(OCc3ccccc3)cc2o1 [Compound 16g, 7-(Benzyloxy)-4-(4-fluorophenyl)-2H-chromen-2-one] | 655 ± 29.7 µM |  | 692 µM |  |  | <0.9 | 3.20 |  | > 690 µM | 
18 | COc1ccc(-c2cc(=O)oc3cc(OC/C=C(\C)CCC=C(C)C)ccc23)cc1 [Compound 17a] | 339 ± 26.3 µM |  | 58.9 µM | 58.3 ± 8.5 µM |  | 5.8 | 4.20 |  |  | 
19 | COc1ccc(-c2cc(=O)oc3cc(OCC4=CCC5CC4C5(C)C)ccc23)cc1 (stereo not drawn) [Compound 17b] | 12.4 ± 2.8 µM |  | > 12.6 µM | > 12 µM |  | <1 | 4.90 |  |  | 
20 | COc1ccc(-c2cc(=O)oc3cc(OCC4=CCC5CC4C5(C)C)ccc23)cc1 (stereo not drawn) [Compound 17c] |  |  |  |  | 14.7 ± 2.9 µM | <1 | < 4.8 and 4.80 | > 15 µM |  | 
21 | COc1ccc(-c2cc(=O)oc3cc(OCCC4=CCC5CC4C5(C)C)ccc23)cc1 (stereo not drawn) [Compound 17d] | 677 ± 22.9 µM |  | 64.6 µM | 64.1 ± 5.4 µM |  | 10.6 |  |  |  | 
22 | COc1ccc(-c2cc(=O)oc3cc(OCCCC4=CC[C@H]5C[C@@H]4C5(C)C)ccc23)cc1 [Compound 17e, 7-(3-((1R,5S)-6,6-Dimethylbicyclo[3.1.1]hept-2-en-2-yl)propoxy)-4-(4-methoxyphenyl)-2H-chromen-2-one] | > 100 µM |  |  |  |  |  |  |  |  | 35.9 ± 5.7 µM
23 | COc1ccc(-c2cc(=O)oc3cc(OCCCCC4=CC[C@H]5C[C@@H]4C5(C)C)ccc23)cc1 [Compound 17f, 7-(4-((1R,5S)-6,6-Dimethylbicyclo[3.1.1]hept-2-en-2-yl)butoxy)-4-(4-methoxyphenyl)-2H-chromen-2-one] | 117 ± 7 µM |  | > 12.6 µM | 10 µM |  |  | 4.97 | 10.8 ± 1 µM |  | 
24 | COc1ccc(-c2cc(=O)oc3cc(OCc4ccccc4)ccc23)cc1 [Compound 17g] | 16.8 ± 3.2 µM |  | > 17 µM | > 17 µM |  | <1 | 4.80 |  |  | 
25 | CC1(C)[C@H]2CC=C(CCNc3ccc4c(-c5ccccc5)cc(=O)oc4c3)[C@@H]1C2 [Compound 22, 7-(2-((1R,5S)-6,6-Dimethylbicyclo[3.1.1]hept-2-en-2-yl)ethylamino)-4-phenyl-2H-chromen-2-one] | 480 ± 18.4 µM |  | 79.4 µM | 79.9 ± 7.4 µM |  | 6 |  |  |  | 
26 | NC(=O)c1ncn([C@@H]2O[C@H](CO)[C@@H](O)[C@H]2O)n1 [Ribavirin, reference compound] | > 4000 µM |  |  |  |  |  |  |  |  | 80.1 ± 13.5 µM
